EP0340778A2, “Prodrugs of 2',3'- Didehydro-2',3'-Dideoxynucleosides” (Bristol-Myers Squibb Company, priority 1988, dated 1989)
Read-outs that look alike come from different tables or passages of the source.

Tested on: HIV (LAV strain)
Assay: anti-HIV/LAV activity in cultures of CEM-F cells, p-24 gag protein enzyme capture assay (ELISA)
Assay type: cell-based
Details: Human immunodeficiency virus 1, CCRF-CEM, 192 h, read-out: ID₅₀
Method: The anti-HIV/LAV activity of several compounds representative of this invention and of d4T for comparison was measured in cultures of CEM-F cells. The CEM cells were infected with approximately 30 TCID₅₀ (50% tissue culture infectious dose) of HIV (LAV strain). The cells were then incubated for 45 min 37°C. The test compounds, in culture medium, were added at various concentrations to the infected cells and then incubated for a further 8 days. After 8 days the antiviral activity was evaluated in the culture media supernatant for p-24 gag protein by an enzyme capture assay (ELISA). The antiviral activity was expressed as the dose which inhibits 50% of the virus expression (ID₅₀ in µM) as detected by the assay described.

[1] = dose which inhibits 50% of the virus expression, CEM cells infected with approximately 30 TCID₅₀ of HIV (LAV strain), 8 days incubation with compound, p-24 gag protein in culture media supernatant

IC50 [nM]	IC50 [1] [nM]	Compound
3200	–	COC(=O)OC[C@@H]1C=C[C@H](n2cc(C)c(=O)[nH]c2=O)O1 [Example 5, 5′-O-Methoxycarbonyl-2′,3′-didehydro-2′,3′-dideoxythymidine]
–	100	Nc1ccn([C@H]2C=C[C@@H](COC(=O)c3ccccc3)O2)c(=O)n1 [Example 12, 5′-O-Benzoyl-2′,3′-didehydro-2′,3′dideoxycytidine]
–	500	O=C(OC[C@@H]1C=C[C@H](n2ccc(=S)[nH]c2=O)O1)c1ccccc1 [Example 11, 5′-O-Benzoyl-2′,3′-didehydro-2′,3′-dideoxy-4-thio-uridine]
400	–	COCC(=O)OCC1C=CC(n2cc(C)c(=O)[nH]c2=O)O1 (stereo not drawn) [Example 3, 5′-O-Methoxyacetyl-2′,3′-didehydro-2′,3′-dideoxythymidine]
500	–	Cc1cn(C2C=CC(COC(=O)c3ccccc3)O2)c(=O)[nH]c1=S (stereo not drawn) [Example 8, 5′-O-Benzoyl-2′,3′-dihydro-2′,3′-dideoxy-4-thio-thymidine]
200	–	Cc1cn([C@H]2C=C[C@@H](CO)O2)c(=O)[nH]c1=O [d4T, 2′,3′-didehydro-2′,3′-dideoxythymidine, reference compound]
4800	–	Cc1cn([C@H]2C=C[C@@H](COC(=O)C(C)(C)C)O2)c(=O)[nH]c1=O [Example 4, 5′-O-Pivaloyl-2′,3′-didehydro-2′,3′-dideoxythymidine]

Compound	IC50 [nM]	IC50 [1] [nM]
CC(=O)OC[C@@H]1C=C[C@H](n2cc(C)c(=O)[nH]c2=O)O1 [Example 1, 5′-O-Acetyl-2′,3′-didehydro-2′,3′-dideoxythymidine]	3200	–
Cc1cn([C@H]2C=C[C@@H](COC(=O)OC3CCCCC3)O2)c(=O)[nH]c1=O [Example 6, 5′-O-Cyclohexyloxycarbonyl-2′,3′-didehydro-2′,3′-dideoxy-thymidine]	600	–
